Type in all cases: cell-based
Assay [1] deals with RPMI-8226. Kind of assay: Percentage growth inhibition of in vitro subpanel tumor cell lines, leukemia. Conditions: Homo sapiens; RPMI-8226 (Leukemia), 0.01 mM; read-out: Percentage growth inhibition (GI %). As to the method: (§1) The anticancer activity of 4-((2-(2-(2-(4-Methoxyphenyl)-4,5-diphenyl-1H-imidazol-1-yl)acetyl)hydrazono)methyl)benzoic acid was assessed against leukemia, non-small cell lung cancer, colon cancer, central nervous system (CNS) cancer, melanoma, ovarian cancer, renal cancer, prostate cancer, and breast cancer.
(§2) Percentage growth inhibition (GI %) of in vitro subpanel tumor cell lines at 0.01 mM concentration for compound 4-((2-(2-(2-(4-Methoxyphenyl)-4,5-diphenyl-1H-imidazol-1-yl)acetyl)hydrazono)methyl)benzoic acid (Labeled as AE21 in the table) can be seen in Table 1 below.

In assay [2] the test system is CCRF-CEM. The assay is described as above. Particulars: Homo sapiens, 0.01 mM, read-out: Percentage growth inhibition (GI %). The method, then:
as §1, §2

The subject of assay [3] is MOLT-4. Described as above. Particulars: Homo sapiens; MOLT-4 (Leukemia), 0.01 mM; read-out: Percentage growth inhibition (GI %). The method, then:
as §1, §2

Assay [4] has as its system MDA-MB-435. Kind of assay: Percentage growth inhibition of in vitro subpanel tumor cell lines, melanoma. Particulars: Homo sapiens; MDA-MB-435 (Melanoma), 0.01 mM; read-out: Percentage growth inhibition (GI %). As to the method: as §1, §2
Assay [5] deals with SK-MEL-5. The description is as above. Conditions: Homo sapiens; SK-MEL-5 (Melanoma), 0.01 mM; read-out: Percentage growth inhibition (GI %). As to the method: as §1, §2
The test system of assay [6] is LOX IMVI. The assay is described as above. Particulars: Homo sapiens, 0.01 mM, read-out: Percentage growth inhibition (GI %). As to the method: as §1, §2
The test system of assay [7] is HCT-15. Kind of assay: Percentage growth inhibition of in vitro subpanel tumor cell lines, colon cancer. Conditions: Homo sapiens; HCT-15 (Colon Cancer), 0.01 mM; read-out: Percentage growth inhibition (GI %). As to the method:
as §1, §2

The test system of assay [8] is HS 578T. The experiment in a line: Percentage growth inhibition of in vitro subpanel tumor cell lines, breast cancer. Particulars: Homo sapiens; HS 578T (Breast Cancer), 0.01 mM; read-out: Percentage growth inhibition (GI %). The method, then:
as §1, §2

The subject of assay [9] is MCF7. Described as above. Particulars: Homo sapiens, 0.01 mM, read-out: Percentage growth inhibition (GI %). The method, then: as §1, §2
Assay [10] relates to CAKI-1. The experiment in a line: Percentage growth inhibition of in vitro subpanel tumor cell lines, renal cancer. Particulars: Homo sapiens; CAKI-1 (Renal Cancer), 0.01 mM; read-out: Percentage growth inhibition (GI %). The method, then:
as §1, §2

Assay [11] concerns A498. Described as above. Conditions: Homo sapiens, 0.01 mM, read-out: Percentage growth inhibition (GI %). As to the method: as §1, §2
The test system of assay [12] is UO-31. Described as above. Conditions: Homo sapiens; UO-31 (Renal Cancer), 0.01 mM; read-out: Percentage growth inhibition (GI %). As to the method: as §1, §2
Assay [13] relates to EKVX. Kind of assay: Percentage growth inhibition of in vitro subpanel tumor cell lines, non-small cell lung cancer. Conditions: Homo sapiens, 0.01 mM, read-out: Percentage growth inhibition (GI %). As to the method: as §1, §2
Assay [14] concerns NCI-H226. The description is as above. Particulars: Homo sapiens, 0.01 mM, read-out: Percentage growth inhibition (GI %). As to the method:
as §1, §2

The subject of assay [15] is NCI-H322M. Described as above. Conditions: Homo sapiens, 0.01 mM, read-out: Percentage growth inhibition (GI %). As to the method:
as §1, §2

Assay [16] relates to NCI-H23. The assay is described as above. Conditions: Homo sapiens, 0.01 mM, read-out: Percentage growth inhibition (GI %). As to the method: as §1, §2
Assay [17] has as its system NCI-H522. Described as above. Conditions: Homo sapiens, 0.01 mM, read-out: Percentage growth inhibition (GI %). The method, then:
as §1, §2

The test system of assay [18] is SNB-75. Kind of assay: Percentage growth inhibition of in vitro subpanel tumor cell lines, CNS cancer. Particulars: Homo sapiens; SNB-75 (CNS Cancer), 0.01 mM; read-out: Percentage growth inhibition (GI %). As to the method: as §1, §2
The test system of assay [19] is SF-295. Described as above. Particulars: Homo sapiens; SF-295 (CNS Cancer), 0.01 mM; read-out: Percentage growth inhibition (GI %). The method, then:
as §1, §2

Assay [20] deals with tumor cell lines. Kind of assay: Anticancer activity against tumor cell lines (panel, overall statement). Conditions: some tumor cell lines, 0.01 mM concentration. As to the method:
as §1, §2

Assay [21] deals with OVCAR-4. The experiment in a line: Percentage growth inhibition of in vitro subpanel tumor cell lines, ovarian cancer. Conditions: Homo sapiens; OVCAR-4 (Ovarian Cancer), 0.01 mM; read-out: Percentage growth inhibition (GI %). As to the method: as §1, §2
In assay [22] the test system is PC-3. Kind of assay: Percentage growth inhibition of in vitro subpanel tumor cell lines, prostate cancer. Particulars: Homo sapiens; PC-3 (Prostate Cancer), 0.01 mM; read-out: Percentage growth inhibition (GI %). As to the method: as §1, §2

By inhibition is commonly meant the drop in the measured response relative to a control, in per cent.

The structures appear in SMILES notation.

In the case of `COc1ccc(-c2nc(-c3ccccc3)c(-c3ccccc3)n2CC(=O)N/N=C/c2ccc(C(=O)O)cc2)cc1` [AE21, 4-((2-(2-(2-(4-Methoxyphenyl)-4,5-diphenyl-1H-imidazol-1-yl)acetyl)hydrazono)methyl)benzoic acid], the inhibition at 10 µM in assay [1] came to 0.34%; in [2], 2.61%; in assay [3], 4.6%; in assay [4], 9.17%; in assay [5] it was 1.29%; in [6], 5.6%. The inhibition at 10 µM in [7] is 3.82%; in assay [8], 18.6%; in assay [9] it was 13.4%; in [10], 6.23%; in assay [11], 13.5%; in assay [12], 0.61%. For the same compound, the inhibition at 10 µM in assay [13] was 10.3%; in [14], 6.62%; in assay [15] it was 0.85%; in assay [16] it was 4.19%; in assay [17], 12.4%; in assay [18], 18.9%. In addition, the inhibition at 10 µM in assay [19] is 5.54%; in assay [21], 13.7%; in assay [22], 2.68%. The anticancer activity entry in assay [20] is on record as “moderate efficiency”.
